Data on 17 molecules can be found in PubChem BioAssay AID1259408 (Genetic Toxicology Data Bank (GENE-TOX), 2018).

The structures appear in SMILES notation. Activity calls are given as the source filed them. The rule behind the calls is not given here.

The data set has as its system GENE-TOX genotoxicity assays, various organisms and cells. The experiment in a line: GENE-TOX mutagenicity studies. The following applies: for call: Assay Type: In vivo carcinogenicity studies. The text has this: GENE-TOX provides genetic toxicology (mutagenicity) test data from expert peer review of open scientific literature for more than 3,000 chemicals from the United States Environmental Protection Agency (EPA). GENE-TOX was established to select assay systems for evaluation, review data in the scientific literature, and recommend proper testing protocols and evaluation procedures for these systems.
GENE-TOX covers the years 1991 - 1998. It is no longer updated.
This is an archive assay for GENE-TOX mutagenicity studies.

Setting [1] is: Species/Cell Type: Drosophila melanogaster, Assay Type: Sex-linked recessive lethal gene mutation, Assay Code: SRL+, Evaluation Type: Evaluation A (Pre-1980).
Setting [2] is: Species/Cell Type: Neurospora crassa, Assay Type: Reverse gene mutation, Assay Code: NER+, Evaluation Type: Evaluation A (Pre-1980).
Where [3] appears, read: Species/Cell Type: Nonhuman, Assay Type: Sister-chromatid exchange (SCE) in vivo, Assay Code: SC3T, Evaluation Type: Evaluation B (Post-1980).
Where [4] appears, read: Species/Cell Type: Rodents, Sex: Male, Assay Type: Dominant lethal test, Assay Code: DLT-, Evaluation Type: Evaluation A (Pre-1980).
Where [5] appears, read: Species/Cell Type: Saccharomyces cerevisiae, Assay Type: Mitotic recombination or gene conversion, Assay Code: YEC+, Evaluation Type: Evaluation A (Pre-1980).
Where [6] appears, read: Species/Cell Type: Salmonella typhimurium (one or more of the five standard strains: TA98, TA100, TA1535, TA1537, and TA1538), Assay Type: Histidine reverse gene mutation, Ames assay, Assay Code: SAL+, Evaluation Type: Evaluation A (Pre-1980).
The mark [7] stands for this setting: Species/Cell Type: Schizosaccharomyces pombe, Assay Type: Reverse gene mutation, Assay Code: YEZ+, Evaluation Type: Evaluation A (Pre-1980).
The mark [8] stands for this setting: Species/Cell Type: Mammalian polychromatic erythrocytes, Assay Type: Micronucleus test, chromosome aberrations, Assay Code: MNT+, Evaluation Type: Evaluation A (Pre-1980).
[9] abbreviates: Species/Cell Type: Salmonella typhimurium (one or more of the five standard strains: TA98, TA100, TA1535, TA1537, and TA1538), Assay Type: Histidine reverse gene mutation, Ames assay, Assay Code: SALT, Evaluation Type: Evaluation A (Pre-1980).
Setting [10] is: Species/Cell Type: Nonhuman, Assay Code: CCG+L, Evaluation Type: Evaluation A (Pre-1980).
The mark [11] stands for this setting: Species/Cell Type: Drosophila melanogaster, Assay Type: Sex-linked recessive lethal gene mutation, Assay Code: SRLT, Evaluation Type: Evaluation A (Pre-1980).

`O=NO`: the mutagenic call runs as follows: (Species/Cell Type: Arabidopsis species, Assay Type: Gene mutation, Assay Code: ARMT, Evaluation Type: Evaluation A (Pre-1980)) “no conclusion”; (Species/Cell Type: Aspergillus nidulans, Assay Type: Forward gene mutation, Assay Code: ASF+, Evaluation Type: Evaluation A (Pre-1980)) “active; positive”; under setting [1], “active; positive”; (Species/Cell Type: Escherichia coli polA (W3119 vs P3478), Assay Type: Rec-assay, DNA effects (bacterial DNA repair), Assay Code: RE1+, Evaluation Type: Evaluation A (Pre-1980)) “active; positive”; (Species/Cell Type: Human lymphocytes, Assay Type: Sister-chromatid exchange (SCE) in vitro, Assay Code: SCL+, Evaluation Type: Evaluation B (Post-1980)) “active; positive”; (Species/Cell Type: Human, Assay Type: Sister-chromatid exchange (SCE) in vitro, Assay Code: SC1+, Evaluation Type: Evaluation B (Post-1980)) “active; positive”. For the same molecule, the mutagenic call is “active; positive” (Species/Cell Type: Mammalian oocytes or early embryo, Assay Type: Chromosome aberrations in vivo, Assay Code: CYO+, Evaluation Type: Evaluation A (Pre-1980)); “active; positive” (Species/Cell Type: Mammalian polychromatic erythrocytes, Assay Type: Micronucleus test, chromosome aberrations, Assay Code: MNT+, Evaluation Type: Evaluation B (Post-1980)); “no conclusion” (Species/Cell Type: Mammalian polychromatic erythrocytes, Assay Type: Micronucleus test, chromosome aberrations, Assay Code: MNTT, Evaluation Type: Evaluation A (Pre-1980)); “no conclusion” (Species/Cell Type: Mouse, Sex: Male, Assay Type: Heritable translocation test, chromosome aberrations, Assay Code: HTTT, Evaluation Type: Evaluation A (Pre-1980)); “active; positive” (Species/Cell Type: Neurospora crassa, Assay Type: Forward gene mutation, Assay Code: NEF+, Evaluation Type: Evaluation A (Pre-1980)); “active; positive” under setting [2]. Further, the mutagenic call by setting is: (Species/Cell Type: Nonhuman, Assay Type: Chromosome aberrations in vitro, Assay Code: CY&+D, Dose Response: With dose response, Evaluation Type: Evaluation A (Pre-1980)) “active; positive”; (Species/Cell Type: Nonhuman, Assay Type: Sister-chromatid exchange (SCE) in vitro, Assay Code: SC2+, Evaluation Type: Evaluation A (Pre-1980)) “active; positive”; under setting [3], “no conclusion”; under setting [4], “inactive; negative”; (Species/Cell Type: Saccharomyces cerevisiae, Assay Type: Forward gene mutation, Assay Code: YEF+, Evaluation Type: Evaluation A (Pre-1980)) “active; positive”; under setting [5], “active; positive”. Further, the mutagenic call is, setting by setting: (Species/Cell Type: Saccharomyces cerevisiae, Assay Type: Mitotic recombination or gene conversion, Assay Code: YEH+, Evaluation Type: Evaluation A (Pre-1980)) “active; positive”; (Species/Cell Type: Saccharomyces cerevisiae, Assay Type: Reverse gene mutation, Assay Code: YER+, Evaluation Type: Evaluation A (Pre-1980)) “active; positive”; under setting [6], “active; positive”; (Species/Cell Type: Salmonella typhimurium, Assay Type: Forward and reverse gene mutation, host-mediated assay, Assay Code: HMA-, Evaluation Type: Evaluation A (Pre-1980)) “inactive; negative”; (Species/Cell Type: Schizosaccharomyces pombe, Assay Type: Forward gene mutation, Assay Code: YEY+, Evaluation Type: Evaluation A (Pre-1980)) “active; positive”; under setting [7], “active; positive”. Besides, the mutagenic call (Species/Cell Type: Syrian hamster embryo (SHE) cells, Assay Type: Cell transformation, clonal assay, Assay Code: CTC+, Evaluation Type: Evaluation A (Pre-1980)) is “active; positive”.

With `CN(C)C(=S)SSC(=S)N(C)C`, the mutagenic call reads like this: (Species/Cell Type: Bacillus subtilis (H17 vs M45), Assay Type: Rec-assay, spot test, DNA effects (bacterial DNA repair), Assay Code: REW+, Evaluation Type: Evaluation A (Pre-1980)) “active; positive”; under setting [8], “active; positive”.

Consider `CC(CNC(=O)N(CCCl)N=O)NC(=O)N(CCCl)N=O` (stereo not drawn), for which the mutagenic call is, setting by setting: under setting [1], “active; positive”; under setting [5], “active; positive”.

With `COc1cc2c(c3oc(=O)c4c(c13)CCC4=O)[C@H]1[C@@H](O2)O[C@@H](Cl)[C@@H]1Cl`, the mutagenic call under setting [6] is “active; positive”.

Take `Cc1cc2nc3c(cc(N)c4ccccc43)oc-2cc1=[N+](C)C`: the mutagenic call (Species/Cell Type: Bacillus subtilis (H17 vs M45), Assay Type: Rec-assay, spot test, DNA effects (bacterial DNA repair), Assay Code: REW-, Evaluation Type: Evaluation A (Pre-1980)) is “inactive; negative”.

With `CNC(=O)Oc1ccccc1Cl`, the mutagenic call (Species/Cell Type: Bacillus subtilis (H17 vs M45), Assay Type: Rec-assay, spot test, DNA effects (bacterial DNA repair), Assay Code: REWT, Evaluation Type: Evaluation A (Pre-1980)) was “no conclusion”; the mutagenic call (Species/Cell Type: Bacillus subtilis (H17 vs M45T), Assay Type: Rec-assay, spot test, DNA effects (bacterial DNA repair), Assay Code: REX-, Evaluation Type: Evaluation A (Pre-1980)) was “inactive; negative”; the mutagenic call (Species/Cell Type: Escherichia coli WP2, Assay Type: Tryptophan reverse gene mutation, Assay Code: WP2-, Evaluation Type: Evaluation A (Pre-1980)) was “inactive; negative”.

On to `Cc1ccc(N=Nc2c(O)c(C(=O)O)cc3ccccc23)c(S(=O)(=O)O)c1`, for which the mutagenic call under setting [9] is “no conclusion”.

Take `O=C1c2c(O)ccc(Cl)c2C(=O)c2c(O)ccc(Cl)c21`: under setting [6], the mutagenic call was “active; positive”.

As to `CC1CO1` (stereo not drawn), the mutagenic call is, setting by setting: (Species/Cell Type: Chinese hamster ovary (CHO) cells, Assay Type: Forward gene mutation at the HPRT locus, Assay Code: CHO+, Evaluation Type: Evaluation B (Post-1980)) “active; positive”; under setting [1], “active; positive”; under setting [2], “active; positive”; under setting [3], “no conclusion”; under setting [4], “inactive; negative”; under setting [7], “active; positive”. Also, the mutagenic call (Species/Cell Type: Syrian hamster embryo (SA7/SHE) cells, Assay Type: Cell transformation, viral enhanced, Assay Code: CT7+, Evaluation Type: Evaluation A (Pre-1980)) was “active; positive”. In addition, for the setting “Species/Cell Type: Nonhuman, Assay Code: CCG+, Evaluation Type: Evaluation A (Pre-1980)”, the call is “active; positive”.

As for `NNc1nnc(NN)c2ccccc12`, the mutagenic call (Species/Cell Type: Nonhuman, Assay Type: Sister-chromatid exchange (SCE) in vivo, Assay Code: SC3+, Evaluation Type: Evaluation B (Post-1980)) is “active; positive”.

Regarding `COc1ccc(C(=O)/C(Br)=C\C(=O)O)cc1`, the mutagenic call under setting [8] is “active; positive”. In addition, the call under setting [10] is “active; positive”.

`C[C@@]1(O)C=Cc2cc3c(ccc4ccccc43)c3c2[C@@]1(O)CC3`: the mutagenic call is, setting by setting: (Species/Cell Type: Chinese hamster lung (V79) cells, Assay Type: Forward gene mutation at the HPRT or ouabain locus, Assay Code: V79-, Evaluation Type: Evaluation A (Pre-1980)) “inactive; negative”; under setting [9], “no conclusion”. In addition, the call (Species/Cell Type: Nonhuman, Assay Code: CCGT, Evaluation Type: Evaluation A (Pre-1980)) was “no conclusion”.

For `O=NN1CCNCC1`, for the setting “Species/Cell Type: Salmonella typhimurium, Assay Type: Forward and reverse gene mutation, host-mediated assay, Assay Code: HMA+, Evaluation Type: Evaluation A (Pre-1980)”, the mutagenic call was “active; positive”.

For `OCCCCO`, the mutagenic call under setting [11] was “no conclusion”.

Regarding `Nc1c(O)c(S(=O)(=O)O)cc2cc(S(=O)(=O)O)ccc12`, the mutagenic call under setting [4] was “inactive; negative”.

For `C[C@]12CCC(=O)C=C1CC[C@@H]1[C@@H]2CC[C@@]2(C)[C@H]1CC[C@]2(C)O`, the mutagenic call (Species/Cell Type: Human, Sex: Male, Assay Type: Sperm morphology, Assay Code: SPH-, Evaluation Type: Evaluation A (Pre-1980)) is “inactive; negative”.

For `ClC1C(Cl)C(Cl)C(Cl)C(Cl)C1Cl` (stereo not drawn), the mutagenic call (Species/Cell Type: Allium cepa, Assay Type: Chromosome aberrations, Assay Code: ALC+D, Dose Response: With dose response, Evaluation Type: Evaluation A (Pre-1980)) was “active; positive”; the mutagenic call under setting [11] is on record as “no conclusion”; the mutagenic call (Species/Cell Type: Hordeum vulgare (barley), Assay Type: Chromosome aberrations, Assay Code: HOC+D, Dose Response: With dose response, Evaluation Type: Evaluation A (Pre-1980)) was “active; positive”; the mutagenic call under setting [5] was “active; positive”; the mutagenic call (Species/Cell Type: Saccharomyces cerevisiae, Assay Type: Reverse gene mutation, Assay Code: YER-*, Activation: With metabolic activation, Evaluation Type: Evaluation A (Pre-1980)) was “inactive; negative”; the mutagenic call (Species/Cell Type: Salmonella typhimurium, Serratia marcesens, Assay Type: Forward and reverse gene mutation, host-mediated assay, Assay Code: HM2T, Evaluation Type: Evaluation A (Pre-1980)) is “no conclusion”. Moreover, the mutagenic call was “active; positive” (Species/Cell Type: Tradescantia species, Assay Type: Chromosome aberrations, Assay Code: TRC+D, Dose Response: With dose response, Evaluation Type: Evaluation A (Pre-1980)) and “active; positive” (Species/Cell Type: Vicia faba, Assay Type: Chromosome aberrations, Assay Code: VIC+D, Dose Response: With dose response, Evaluation Type: Evaluation A (Pre-1980)). Besides, the call under setting [10] was “active; positive”.
